A short description of the data set: pKa values for the secondary alcohol OH group.

On to `OC[C@@H](O)[C@@H](O)[C@H](O)[C@@H](O)CO` [sorbitol], for which the pKa (commonly the negative logarithm of the acid dissociation constant) amounted to 13.6. On the same count and under the same terms, to `OC[C@H]1O[C@H](O[C@H]2[C@H](O)[C@@H](O)C(O)O[C@@H]2CO)[C@H](O)[C@@H](O)[C@@H]1O` (mixture of isomers) [maltose] belongs 11.9. For the molecule `OC[C@H]1O[C@@H]2O[C@H]3[C@H](O)[C@@H](O)[C@@H](O[C@H]4[C@H](O)[C@@H](O)[C@@H](O[C@H]5[C@H](O)[C@@H](O)[C@@H](O[C@H]6[C@H](O)[C@@H](O)[C@@H](O[C@H]7[C@H](O)[C@@H](O)[C@@H](O[C@H]1[C@H](O)[C@H]2O)O[C@@H]7CO)O[C@@H]6CO)O[C@@H]5CO)O[C@@H]4CO)O[C@@H]3CO` [α-CD], the “pKa value for the secondary alcohol OH group” value came out at 12.05.

The record behind these values is US20150136603A1, “WATER-SOLUBLE, UV-ABSORBING AND/OR FLOURESCENT COMPONENTS WITH VERY HIGH ISOELECTRIC POINTS” (TEXAS A & M UNIVERSITY SYSTEM, priority 2004, published 2015).
